{
  "source": "patent US11730712B2",
  "about": "“Functionalized long-chain hydrocarbon mono- and di-carboxylic acids and derivatives thereof, and their use for the prevention or treatment of disease” (ESPERVITA THERAPEUTICS, INC., priority 2021, dated 2023)",
  "system": "liver fibrosis gene panel (770 genes)",
  "test": "Nanostring nCounter Fibrosis panel gene expression in liver of DEN-injected mice",
  "type": "in vivo, mouse",
  "procedure": "Nanostring Analysis. RNA was extracted from paired liver and tumor tissue from vehicle, Compound I-1 (100 mg/kg) and Compound I-32 (100 mg/kg) treated mice using an RNeasy kit (Qiagen, Calif., USA) as per manufacturer's protocol. All RNA samples passed the BioAnalyzer quality control test. The expression of target genes in liver and tumor were analyzed using the nCounter Fibrosis and Cancer Panel (NanoString Technologies, Inc., WA, USA), respectively according to manufacturer's protocol at the McMaster Genomics Facility. Technical and biological normalization against global geometric mean was performed in nSolver 4.0 software (NanoString Technologies). Technical normalization was performed in the nSolver software (version 4.0.70) by normalizing sample target raw counts to the geometric mean of positive control spike-ins. Biological normalization was performed by normalizing sample target raw counts to the geometric mean of selected housekeeping genes (Ppia, Nubp1, Nol7, Armh3, Rplp0, Cnot10, Pgk1, and Acad9). Pathway scores were calculated as the first principal component of the normalized expression values for all genes in each pathway and samples were compiled according to experimental groups to determine average pathway scores. Statistical significance was calculated between experimental groups using multiple t-tests and p-values were corrected for multiple comparisons using Benjamin-Hochberg false discovery rate.\nMolecular analysis. To identify the pathways modulated in the liver and tumor tissue, nanostring analysis of fibrosis and cancer, pathways, respectively were completed in an n=8 mice treated with vehicle or Compound I-32 or Compound I-1 at 100 mg/kg.",
  "data": [
    {"molecule": "CC(C)(CCCCc1ccc(CCCCC(C)(C)C(=O)O)cc1)C(=O)O", "note": "[Compound I-1, 6-[4-(5-carboxy-5-methylhexyl)-phenyl]-2,2-dimethylhexanoic acid]", "values": [
      {"measurement": "number of genes downregulated", "setting": "100 mg/kg, 4 weeks", "value": 170},
      {"measurement": "number of genes upregulated", "setting": "100 mg/kg, 4 weeks", "value": 86},
      {"measurement": "number of genes with altered expression relative to vehicle controls (770 genes measured)", "setting": "100 mg/kg, 4 weeks", "value": 256},
      {"measurement": "Casp7 Log2FC", "setting": "NM_00761-1, 100 mg/kg, vs vehicle", "value": "−0.522"},
      {"measurement": "Adh1 Log2FC", "setting": "NM_007409, 100 mg/kg, vs vehicle", "value": 0.603},
      {"measurement": "Aldh3a2 Log2FC", "setting": "NM_007437, 100 mg/kg, vs vehicle", "value": 1.1},
      {"measurement": "Ap1s1 Log2FC", "setting": "NM_007457, 100 mg/kg, vs vehicle", "value": 0.242},
      {"measurement": "Apoa4 Log2FC", "setting": "NM_007468, 100 mg/kg, vs vehicle", "value": "−4.07"},
      {"measurement": "Ctnnb1 Log2FC", "setting": "NM_007614, 100 mg/kg, vs vehicle", "value": "−0.17"},
      {"measurement": "Cd36 Log2FC", "setting": "NM_007643, 100 mg/kg, vs vehicle", "value": 1.32},
      {"measurement": "Cdh2 Log2FC", "setting": "NM_007664, 100 mg/kg, vs vehicle", "value": "−0.164"},
      {"measurement": "Cebpa Log2FC", "setting": "NM_007678, 100 mg/kg, vs vehicle", "value": "−0.363"},
      {"measurement": "Cfi Log2FC", "setting": "NM_007686, 100 mg/kg, vs vehicle", "value": "−0.56"},
      {"measurement": "Chil1 Log2FC", "setting": "NM_007695, 100 mg/kg, vs vehicle", "value": 2.06},
      {"measurement": "Col1a1 Log2FC", "setting": "NM_007742, 100 mg/kg, vs vehicle", "value": "−1.21"},
      {"measurement": "Col1a2 Log2FC", "setting": "NM_007743, 100 mg/kg, vs vehicle", "value": "−0.924"},
      {"measurement": "Cox6a1 Log2FC", "setting": "NM_007748, 100 mg/kg, vs vehicle", "value": 0.432},
      {"measurement": "Cox7c Log2FC", "setting": "NM_007749, 100 mg/kg, vs vehicle", "value": 0.501},
      {"measurement": "Crp Log2FC", "setting": "NM_007768, 100 mg/kg, vs vehicle", "value": "−0.931"},
      {"measurement": "Cybb Log2FC", "setting": "NM_007807, 100 mg/kg, vs vehicle", "value": "−0.522"},
      {"measurement": "Cyp7a1 Log2FC", "setting": "NM_007824, 100 mg/kg, vs vehicle", "value": "−1.07"},
      {"measurement": "Eef2k Log2FC", "setting": "NM_007908, 100 mg/kg, vs vehicle", "value": 0.422},
      {"measurement": "Ephx2 Log2FC", "setting": "NM_007940, 100 mg/kg, vs vehicle", "value": 0.794},
      {"measurement": "F5 Log2FC", "setting": "NM_007976, 100 mg/kg, vs vehicle", "value": "−0.363"},
      {"measurement": "Fas Log2FC", "setting": "NM_007987, 100 mg/kg, vs vehicle", "value": 0.528},
      {"measurement": "Fasn Log2FC", "setting": "NM_007988, 100 mg/kg, vs vehicle", "value": 0.831},
      {"measurement": "Slc37a4 Log2FC", "setting": "NM_008063, 100 mg/kg, vs vehicle", "value": "−1.17"},
      {"measurement": "Gas1 Log2FC", "setting": "NM_008086, 100 mg/kg, vs vehicle", "value": "−0.608"},
      {"measurement": "Gpc4 Log2FC", "setting": "NM_008150, 100 mg/kg, vs vehicle", "value": "−0.469"},
      {"measurement": "Gpr65 Log2FC", "setting": "NM_008152, 100 mg/kg, vs vehicle", "value": "−0.447"},
      {"measurement": "Hadh Log2FC", "setting": "NM_008212, 100 mg/kg, vs vehicle", "value": 0.28},
      {"measurement": "Hmgcs2 Log2FC", "setting": "NM_008256, 100 mg/kg, vs vehicle", "value": 0.291},
      {"measurement": "Hsd11b1 Log2FC", "setting": "NM_008288, 100 mg/kg, vs vehicle", "value": "−1.33"},
      {"measurement": "Hsd17b4 Log2FC", "setting": "NM_008292, 100 mg/kg, vs vehicle", "value": 0.637},
      {"measurement": "Hsp90ab1 Log2FC", "setting": "NM_008302, 100 mg/kg, vs vehicle", "value": 0.407},
      {"measurement": "Irf8 Log2FC", "setting": "NM_008320, 100 mg/kg, vs vehicle", "value": "−0.55"},
      {"measurement": "ll10ra Log2FC", "setting": "NM_008348, 100 mg/kg, vs vehicle", "value": "−0.737"},
      {"measurement": "Irf1 Log2FC", "setting": "NM_008390, 100 mg/kg, vs vehicle", "value": "−0.32"},
      {"measurement": "Itch Log2FC", "setting": "NM_008395, 100 mg/kg, vs vehicle", "value": "−0.277"},
      {"measurement": "Lpl Log2FC", "setting": "NM_008509, 100 mg/kg, vs vehicle", "value": 1.98},
      {"measurement": "Lrp1 Log2FC", "setting": "NM_008512, 100 mg/kg, vs vehicle", "value": "−0.339"},
      {"measurement": "Cd180 Log2FC", "setting": "NM_008533, 100 mg/kg, vs vehicle", "value": "−0.776"},
      {"measurement": "Masp1 Log2FC", "setting": "NM_008555, 100 mg/kg, vs vehicle", "value": "−0.24"},
      {"measurement": "Anapc1 Log2FC", "setting": "NM_008569, 100 mg/kg, vs vehicle", "value": "−0.378"},
      {"measurement": "Mmp12 Log2FC", "setting": "NM_008605, 100 mg/kg, vs vehicle", "value": "−1.53"},
      {"measurement": "Mmp14 Log2FC", "setting": "NM_008608, 100 mg/kg, vs vehicle", "value": "−0.522"},
      {"measurement": "Ncf4 Log2FC", "setting": "NM_008677, 100 mg/kg, vs vehicle", "value": "−0.746"},
      {"measurement": "Nedd8 Log2FC", "setting": "NM_008683, 100 mg/kg, vs vehicle", "value": 0.139},
      {"measurement": "Nfkb1 Log2FC", "setting": "NM_008689, 100 mg/kg, vs vehicle", "value": "−0.241"},
      {"measurement": "Pcx Log2FC", "setting": "NM_008797, 100 mg/kg, vs vehicle", "value": "−0.57"},
      {"measurement": "Plcb3 Log2FC", "setting": "NM_008874, 100 mg/kg, vs vehicle", "value": "−0.321"},
      {"measurement": "Plg Log2FC", "setting": "NM_008877, 100 mg/kg, vs vehicle", "value": "−0.393"},
      {"measurement": "Ppm1a Log2FC", "setting": "NM_008910, 100 mg/kg, vs vehicle", "value": 0.148},
      {"measurement": "Map2k1 Log2FC", "setting": "NM_008927, 100 mg/kg, vs vehicle", "value": "−0.145"},
      {"measurement": "Psmc3 Log2FC", "setting": "NM_008948, 100 mg/kg, vs vehicle", "value": 0.145},
      {"measurement": "Rac1 Log2FC", "setting": "NM_009007, 100 mg/kg, vs vehicle", "value": "−0.093"},
      {"measurement": "Saa1/2 Log2FC", "setting": "NM_009117, 100 mg/kg, vs vehicle", "value": "−3.03"},
      {"measurement": "Scd1 Log2FC", "setting": "NM_009127, 100 mg/kg, vs vehicle", "value": 0.478},
      {"measurement": "Sem1 Log2FC", "setting": "NM_009169, 100 mg/kg, vs vehicle", "value": 0.385},
      {"measurement": "Spp1 Log2FC", "setting": "NM_009263, 100 mg/kg, vs vehicle", "value": "−0.879"},
      {"measurement": "Ssr4 Log2FC", "setting": "NM_009279, 100 mg/kg, vs vehicle", "value": "−0.321"},
      {"measurement": "Tgfbr1 Log2FC", "setting": "NM_009370, 100 mg/kg, vs vehicle", "value": "−0.445"},
      {"measurement": "Traf2 Log2FC", "setting": "NM_009422, 100 mg/kg, vs vehicle", "value": "−0.247"},
      {"measurement": "Tnfsf10 Log2FC", "setting": "NM_009425, 100 mg/kg, vs vehicle", "value": "−0.823"}
    ]}
  ]
}
